Patent US9560989B2, “Method for determining the metabolic capacity of at least one enzyme” (HUMEDICS GMBH, priority 2011, dated 2017)

What was measured:
[1] = target: T1, CYP450 1A2 (Homo sapiens, UniProt P05177); conditions: in vivo
T1 sequence (P05177 1-516): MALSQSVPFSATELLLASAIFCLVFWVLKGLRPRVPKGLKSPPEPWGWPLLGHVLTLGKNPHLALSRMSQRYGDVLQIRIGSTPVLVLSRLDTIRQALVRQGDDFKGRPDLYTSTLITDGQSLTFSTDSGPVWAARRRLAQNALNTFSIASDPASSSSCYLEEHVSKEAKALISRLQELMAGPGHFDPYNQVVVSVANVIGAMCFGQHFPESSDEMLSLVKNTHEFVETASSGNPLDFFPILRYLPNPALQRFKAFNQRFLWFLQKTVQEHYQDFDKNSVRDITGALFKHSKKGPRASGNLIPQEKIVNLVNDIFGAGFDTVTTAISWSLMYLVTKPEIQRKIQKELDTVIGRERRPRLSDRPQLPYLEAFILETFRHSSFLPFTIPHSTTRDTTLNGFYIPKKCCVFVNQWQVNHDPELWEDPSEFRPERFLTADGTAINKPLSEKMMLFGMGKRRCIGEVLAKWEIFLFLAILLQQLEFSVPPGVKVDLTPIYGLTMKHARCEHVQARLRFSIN
Procedure: As substrate, ^13C-labeled methacetin at a dose of 2 mg per kilogram bodyweight of the individual was administered to the individual, wherein the release period was shorter than 60 seconds. In the body of the individual the ^13C-labeled methacetin was metabolized in the liver to paracetamol and ^13C-labeled CO2. The latter was detected as product in the air exhaled by the individual.
1 DOB here refers to a change of the ^13CO2-to-^12CO2-ratio by a thousandth above the natural ratio. The obtained measured values, illustrated in FIG. 1, are subsequently fitted with a suitable model function. […] From this model function—with a function equation familiar as such—different parameters can now be derived which specify the function. […]
As methacetin is almost solely metabolized in the liver, with the specified metabolism dynamics it is possible to directly and immediately trace the metabolism of the administered substrate by the enzymes existing in the liver. […] Here, for instance the value of the maximum product concentration in the exhaled air Pmax allows a statement to be made about the number of the healthy liver cells and the liver volume which is thus available for metabolism; whereas the rise in the form of the time constant(s) of the model function, fitted to the measured values, allows statements to be made about the entrance velocity of the substrate into the liver cells. […]

[2] = target: T1, CYP450 1A2; test: metabolic power of the liver determined by methacetin metabolism at different dosages; format: in vivo; parameters: metabolized to ^13CO2 and paracetamol in the liver cells by the enzyme CYP450 1A2; from tissue; host or cells: liver of the living individual (in vivo); conditions: FIG. 2
Procedure: The metabolic power was determined according to the formulae indicated above for different methacetin metabolisms observed after methacetin administration in different dosages. Specifically, 1 mg ^13C-labeled methacetin per kg bodyweight, 2 mg/kg, 4 mg/kg and 8 mg/kg were administered.
This non-linearity is expressed by the function L(n/M), wherein n denotes the number of substrate molecules, i.e. methacetin molecules, and M denotes the bodyweight in kg. This function L(n/M) forms part of the fitting curve represented in FIG. 2 by the interpolation curve between the single measurement points.

COc1ccc(NC(C)=O)cc1 [13C-labeled methacetin]
time point of half-maximum methacetine metabolism (t1/2) [1]: ~1.5 min | time point of maximum methacetine metabolism (tmax) [1]: ~6.5 min | dependence of the measured signals on dosage ([2]; 1 mg per kg body weight): linear dependence | dependence of the measured signals on dosage ([2]; 2 mg/kg): linear dependence | deviation from the linear behaviour ([2]; 4 mg/kg): 10% | deviation from the linear behaviour ([2]; 8 mg/kg): more than 20%
